{
  "source": "patent US20100286038A1",
  "about": "“FORMULATION CONTAINING CYCLIN-DEPENDENT KINASE INHIBITING COMPOUND AND METHOD OF TREATING TUMORS USING THE SAME” (priority 2007, published 2010)",
  "key": {"CaMKII": {"system": "CaMKII", "assay_type": "biochemical"}, "A2780 cells": {"system": "A2780 cells", "settings": "2 hours exposure to 0.1 mM", "description": "Following washout, lysates were prepared from the cells to assess the duration of the effects of exposure."}, "AMPK": {"system": "AMPK", "test": "Upstate kinase Profiler counter-screening", "assay_type": "biochemical"}, "[1]": {"system": "A2780 ovarian carcinoma xenografts", "test": "A2780 xenograft ovarian cancer model", "assay_type": "in vivo, nude mice"}, "Fes": {"target": "T1, Fes (Homo sapiens, UniProt P07332)", "T1 construct": "purchased Upstate", "T1 sequence (P07332 whole entry, species assumed)": "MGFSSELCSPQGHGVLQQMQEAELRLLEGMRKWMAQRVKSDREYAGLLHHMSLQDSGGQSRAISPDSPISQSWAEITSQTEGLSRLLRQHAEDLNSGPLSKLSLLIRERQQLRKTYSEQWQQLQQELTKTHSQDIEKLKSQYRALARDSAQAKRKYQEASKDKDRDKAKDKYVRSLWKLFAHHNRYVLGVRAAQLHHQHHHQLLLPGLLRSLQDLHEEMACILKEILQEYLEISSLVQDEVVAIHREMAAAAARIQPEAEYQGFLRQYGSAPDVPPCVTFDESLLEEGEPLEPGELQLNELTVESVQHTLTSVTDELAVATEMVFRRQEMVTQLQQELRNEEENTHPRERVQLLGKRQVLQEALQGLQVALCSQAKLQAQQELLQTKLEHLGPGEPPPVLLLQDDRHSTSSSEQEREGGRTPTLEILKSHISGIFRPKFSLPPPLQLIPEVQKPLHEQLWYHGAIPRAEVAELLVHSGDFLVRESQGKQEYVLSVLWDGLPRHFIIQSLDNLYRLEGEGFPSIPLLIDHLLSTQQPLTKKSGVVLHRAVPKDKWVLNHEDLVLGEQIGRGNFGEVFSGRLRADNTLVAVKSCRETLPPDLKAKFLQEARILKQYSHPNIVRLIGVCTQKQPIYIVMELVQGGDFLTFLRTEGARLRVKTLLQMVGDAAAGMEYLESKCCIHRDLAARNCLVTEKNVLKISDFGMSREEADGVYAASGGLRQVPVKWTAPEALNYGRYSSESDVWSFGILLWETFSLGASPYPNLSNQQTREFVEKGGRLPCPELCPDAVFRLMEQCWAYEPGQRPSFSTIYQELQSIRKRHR", "test": "Upstate kinase Profiler counter-screening", "assay_type": "biochemical"}},
  "note": "Where two headings read alike, the source gives them in different places.",
  "data": [
    {"smiles": "CCc1cnn2c(NCc3ccc[n+]([O-])c3)cc(N3CCCC[C@H]3CCO)nc12", "note": "[Formula II]", "values": [
      {"measurement": "% remaining activity", "setting": "CaMKII; at 1 μM", "value": 102, "unit": "%"},
      {"measurement": "% remaining activity", "setting": "CaMKII; at 10 μM", "value": 91, "unit": "%"},
      {"measurement": "period of suppression of RB phosphorylation and caspase activation after the washout", "setting": "A2780 cells", "value": "exceeding 6 hours"},
      {"measurement": "% remaining activity", "setting": "AMPK; at 1 μM", "value": 94, "unit": "%"},
      {"measurement": "% remaining activity", "setting": "AMPK; at 10 μM", "value": 82, "unit": "%"},
      {"measurement": "tumor growth inhibition", "setting": "[1]; 8 mg/kg IP daily for 10 days", "value": 70, "unit": "%"},
      {"measurement": "tumor growth inhibition", "setting": "[1]; 16 mg/kg IP daily for 10 days", "value": 70, "unit": "%"},
      {"measurement": "tumor growth inhibition", "setting": "[1]; 32 mg/kg IP daily for 10 days", "value": 90, "unit": "%"},
      {"measurement": "tumor growth inhibition", "setting": "[1]; 48 mg/kg IP daily for 10 days", "value": 96, "unit": "%"},
      {"measurement": "50% inhibition level (minimum effective dose)", "setting": "[1]; IP daily for 10 days", "value": "less than 8 mg/kg"},
      {"measurement": "MED", "setting": "[1]; once per day IP for 7 days, dose inducing at least 50% inhibition of tumor growth", "value": 5, "unit": "mg/kg"},
      {"measurement": "% remaining activity", "setting": "Fes; at 1 μM", "value": 87, "unit": "%"},
      {"measurement": "% remaining activity", "setting": "Fes; at 10 μM", "value": 91, "unit": "%"}
    ]}
  ]
}
